Here are results for 77 compounds from a melting point compilation (Tetko et al.).

The compound `CCCCCCCCCCCC(=O)OC1OC(CO)C(OC2OC(CO)C(O)C(O)C2O)C(O)C1O` (configuration not stated) yielded a melting point of 193 to 197 °C. Next, `O=C1NCC(CCl)O1` (configuration not stated): 101 to 105 °C; `C1CSCS1`: -50 °C; `COCc1ccc(O)c([N+](=O)[O-])c1`: 123 °C. As for `CC1CCC(C)(C(=O)CN2C(=O)c3ccccc3C2=O)C1(C)C` (configuration not stated), the figure is 99 °C; as for `CCC(C(=O)O)C1(O)CCCCC1` (configuration not stated), 81.5 °C; as for `Cc1c(C)c(Br)c2ccccc2c1Br`, 164 °C. The compound `Cc1c(C(=O)O)cc(-c2ccccc2)n1-c1ccccc1` displayed a melting point of 226 to 227 °C. Compound `COC(=O)[C@H](C)NC(=O)c1ccccc1` yielded a melting point of 61 to 63 °C. As for `N#Cc1cccc(C(N)=O)c1`, the melting point worked out at 223 °C. As for `C=C1CCC(O)CC1=CC=C1CCCC2(C)C1CCC2C(C)C=CC(C)C(C)C` (configuration not stated), the figure is 116 °C; as for `O=C1NC(=O)c2c(Cl)c(Cl)c(Cl)c(Cl)c21`, 300 °C; as for `N#Cc1c(F)ccc([N+](=O)[O-])c1F`, 52.5 °C. For the compound `Cc1ccc(C(=O)C=Cc2ccc(-c3ccccc3)o2)o1`, the melting point was in the range of 122 to 123 °C. As for `O=C(O)CSCC(=O)NC1CCSC1=O` (configuration not stated), the figure is 156 °C; as for `C#CC1(O)CCC2(C)C(CCC3C4CCC(=O)C4(C)CCC32)C1` (configuration not stated), 237 to 238 °C; as for `NCCCCCC(=O)O`, 211 °C.

Take `BrCc1ccc(-c2csnn2)cc1`: the melting point was in the range of 135 to 137 °C. Consider `CC1(C)CC(C)(c2ccc(O)cc2)c2ccccc2O1` (configuration not stated), for which the melting point was 140 °C. As for `CN(C)c1ccc(/C=C(\C#N)c2nc(-c3cccc4ccccc34)cs2)cc1`, the figure is 128 °C. Compound `CC(=O)OCC1OC(OC2OC=CC3C(OC(=O)c4ccc(OC(C)=O)cc4)C4OC4(COC(C)=O)C23)C(OC(C)=O)C(OC(C)=O)C1OC(C)=O` (configuration not stated) registered a melting point of 135 °C. As for `ClCc1ccc(Cl)nc1`, the figure is 40 °C. Next, `CN(C)CCn1cnc2c1c(=O)n(C)c(=O)n2C`: 95 °C; `Fc1ccc(C(c2ccc(F)cc2)C(Cl)(Cl)Cl)cc1`: 44.5 °C. As for `CCOC(=O)C1=C(C)NC(=O)NC1c1ccccc1` (configuration not stated), the figure is 180 °C; as for `OC(CCN1CCCC1)(c1ccccc1)C1CCCCC1` (configuration not stated), 86 °C.

Turning to `Nc1cc(Cl)cc(Cl)c1O`, the melting point is 97 °C. In the case of `O=S(=O)(c1ccccc1)C1CC1(Cl)Cl` (configuration not stated), the melting point fell in the range of 83 to 88 °C. The compound `C/C=C/C#N` had a melting point of -51.5 °C.

Compound `O=Cc1cnc2ccccc2c1` showed a melting point of 68 to 71 °C. Next, `NCc1ccccn1`: -20 °C; `N[C@@H]1CC[C@H](C(=O)O)C1`: 192 °C.

As to `CC(C)CC=NO`, the melting point is 48.5 °C.

`N=C(N)c1ccc(Oc2ccc(C(=N)N)cc2)cc1`: the melting point came to 216 °C. Next, `COC(=O)c1cscc1N`: 35 to 38 °C. For `O=C(c1cccs1)c1noc(-c2ccc(Cl)cc2)c1S(=O)(=O)c1ccccc1`, the melting point is 125 °C.

For the compound `O=C(Nc1cccnc1)C(F)(F)C(F)(F)C(F)(F)C(F)(F)C(F)(F)C(F)(F)C(F)(F)C(F)(F)F`, the melting point amounted to 145 °C. Consider `CC(C)(C)N(NC(=O)c1ccccc1)C(=O)c1cc(Cl)ccc1Cl`, for which the melting point turned out to be 214 °C. As for `Cc1cc(O)c(C(C)(C)C)cc1C(C)(C)C`, the figure is 62.1 °C; as for `CCCCCCCCCCCC(=O)Oc1ccccc1`, 24.5 °C. As for `CCOC(=O)c1ccc(F)cc1`, the melting point turned out to be 26 °C. Next, `c1cc(SSc2ccncc2)ccn1`: 76 °C; `CC1CC=CC2(O1)OC1CC(=O)OC1C1(O)C(=O)c3ccccc3C(=O)C21O` (configuration not stated): 238 °C; `COc1ccc(NC(=O)C(C)=O)cc1`: 127 °C. As for `CC1(C)SC2C(NC(=O)COc3ccccc3)C(=O)N2C1C(=O)O` (configuration not stated), the figure is 124 °C; as for `CC(=O)OC[C@H]1O[C@@H](O[C@H]2[C@H](OC(C)=O)[C@@H](OC(C)=O)[C@@H](OC(C)=O)O[C@@H]2COC(C)=O)[C@H](OC(C)=O)[C@@H](OC(C)=O)[C@@H]1OC(C)=O`, 230 °C. Next, `Cn1c(N)c(C=O)c(=O)n(C)c1=O`: 199 to 201 °C; `O=c1cccc2n1CC1CNCC2C1` (configuration not stated): 152 °C; `Cc1c(C)n2c(CBr)c(C)c(=O)n2c1=O`: 152 °C. As to `Nc1ccc(C(=O)c2ccccc2)cc1[N+](=O)[O-]`, the melting point fell in the range of 140 to 143 °C.

In turn, `COc1ccc(Br)cc1C=CC(=O)O` came in with a melting point of 224 to 229 °C. Next, `S=C1NCCCCN1`: 178 to 180 °C.

As for `CCCCCCCCc1ccc(/N=N/c2ccc(OC(=O)CC)cc2)cc1`, the melting point was 60 to 62 °C.

In turn, `CC(=O)OC1(C(C)=O)CCC2(C)C(CCC3C4CCC(O)C4(C)CCC32)C1` (configuration not stated) showed a melting point of 193 °C. `O=C(c1ccc(Cl)cc1)C(Br)c1ccccc1` (configuration not stated) had a melting point of 65 to 66 °C.

On to `COc1ccc2c(c1)CCC(=Cc1ccccc1)C2=O`, for which the melting point fell in the range of 75 to 75.5 °C. Next, `CC(C)(C)OC(=O)NCc1cccc(CO)c1`: 51 to 55 °C.

For the compound `CC(=O)c1cc(C)c(C)cc1O`, the melting point lay in the range of 69 to 73 °C. With `C=CCC1=C(O)C2=CC=C3C(C)=C(C)C(=O)CC3(C)C2=C(O)C1=O` (configuration not stated), the melting point is 171 °C. `O=C(O)c1cc2cccnc2nc1C(F)(F)F`: the melting point was in the range of 309 to 310 °C.

Regarding `CCCCCCC1CCCCC1`, the melting point was -43 °C. `c1ccc(/N=N/c2ccc(-c3ccc(NNc4ccccc4)cc3)cc2)cc1` yielded a melting point of 172 to 173 °C. Next, `Cc1ccc(Sc2ccc(C=O)cc2[N+](=O)[O-])cc1`: 138 to 141 °C; `Cn1nc(C(=O)Cl)cc1-c1ccccc1`: 80 to 82 °C. As for `c1ccc2cc3c(cc2c1)nnc1ncnn13`, the figure is 198 to 202 °C; as for `COc1ccc(CCO)cc1OC`, 46 °C; as for `CS(=O)(=O)Nc1ccc([N+](=O)[O-])cc1Oc1ccccc1`, 144 °C. `N=C1NC(=O)C(=NNc2ccccc2)S1` showed a melting point of 210 °C. Consider `NC(=O)c1cccc(C(F)(F)F)c1`, for which the melting point is 124 °C. With `CC(=O)c1ccc(S(=O)(=O)NC(=O)NC2CCCCC2)cc1`, the melting point stood at 188 °C. Turning to `OCCCCCCCCCCCCCCO`, the melting point came out at 85.8 °C.

Take `Cc1csc2ncnc(NN)c12`: the melting point was 182 to 183 °C. For the compound `C=CC(=O)OCCN(C)C`, the melting point is -60 °C.

In turn, `CC(=O)Nc1c(I)c(NC(C)=O)c(I)c(C(=O)O)c1I` came in with a melting point of 300 °C. Next, `CC(C)CNC(=O)C(C(F)(F)F)C(F)(F)F`: 111 °C; `CCOC(=O)/C(=N\Nc1ccccc1)C(=O)C(F)(F)F`: 80 to 82 °C; `NC(=S)c1ccccc1F`: 80 to 84 °C.
